Data published in the NIST ThermoML archive (doi:10.1021/je700644s).

Experiments:
[1] = Crystal; visual observation
[2] = molar heat capacity at constant pressure; conditions: 101.33 kPa, Crystal

N[C@@H](Cc1ccc(O)c(O)c1)C(=O)O [L-3,4-dihydroxyphenylalanine]
Conditions	Normal melting temperature [°C]
[1]	277.00

[2]
Conditions	molar heat capacity at constant pressure [J/K/mol]
78.47 K	71.34
79.83 K	72.35
81.49 K	73.75
83 K	75.18
84.82 K	76.68
86.63 K	78.19
88.44 K	79.6
89.94 K	80.73
91.35 K	82.27
93.06 K	83.62
94.81 K	84.79
97.14 K	86.2
98.89 K	87.89
100.72 K	89.28
102.64 K	90.78
104.71 K	92.24
106.74 K	93.97
108.74 K	95.89
110.71 K	97.8
112.66 K	99.36
114.58 K	101.07
116.47 K	103
118.5 K	104.72
120.65 K	106.43
122.77 K	108.44
124.86 K	110.39
126.96 K	112.16
129.01 K	113.95
131.02 K	115.5
133.03 K	117.12
135.03 K	118.6
136.99 K	120.14
138.96 K	121.84
140.87 K	123.73
142.78 K	125.45
144.7 K	127.02
146.71 K	128.82
148.67 K	130.53
150.67 K	132.25
152.73 K	133.85
154.83 K	135.87
156.88 K	137.96
158.94 K	139.53
160.94 K	141.56
162.95 K	143.5
164.96 K	144.99
166.92 K	146.4
168.93 K	148.17
170.89 K	150.21
172.8 K	151.86
174.76 K	153.4
176.68 K	155.02
178.59 K	156.36
180.49 K	157.89
182.37 K	159.54
184.4 K	161.1
186.39 K	162.67
188.35 K	164.31
190.45 K	165.92
192.51 K	167.41
194.57 K	169.47
196.6 K	171.19
198.74 K	173.02
200.73 K	174.55
202.72 K	176.35
204.75 K	178.18
206.74 K	179.9
208.73 K	181.7
210.72 K	183.49
212.57 K	185.1
214.57 K	186.74
216.49 K	188.38
218.41 K	190.07
220.37 K	191.82
222.25 K	193.7
224.06 K	195.34
226.73 K	197.52
229.58 K	199.77
232.56 K	202.63
235.59 K	205.29
238.77 K	207.95
241.76 K	210.58
244.74 K	212.99
247.73 K	215.37
250.77 K	218.1
253.75 K	220.62
256.74 K	223
259.76 K	225.81
262.77 K	228.18
265.75 K	230.91
268.6 K	233.5
271.68 K	236.23
274.76 K	239.03
277.82 K	242.01
280.88 K	244.64
283.92 K	247.23
286.95 K	249.5
289.94 K	252.13
292.92 K	255.42
295.76 K	258.06
298.79 K	261
301.77 K	263.53
304.66 K	266.35
307.79 K	269.29
310.97 K	272.35
313.95 K	275.23
317.08 K	278.06
320.26 K	281.06
323.2 K	284.12
325.79 K	286.4
328.38 K	288.56
331.07 K	291.45
333.76 K	293.85
336.37 K	296.31
338.98 K	299.04
341.74 K	301.82
344.65 K	304.77
347.41 K	307.5
350.17 K	309.96
352.94 K	312.58
355.85 K	315.2
358.46 K	317.71
361.22 K	320.33
363.98 K	323.17
366.59 K	325.79
369.35 K	328.08
372.11 K	330.75
374.87 K	333.1
377.49 K	335.94
380.09 K	338.83
382.85 K	341.72
385.61 K	344.62
388.83 K	347.29
391.44 K	350.03
394.35 K	352.91
396.81 K	355.28
399.26 K	357.83
